Laboratory results published in patent US20230265151A1, “GIP/GLP1 CO-AGONIST COMPOUNDS” (priority 2020, published 2023).
Where two headings read alike, the source gives them in different places. *1 amine or outer side, *2 acyl side, *3 side chain or, on linkers, in order; H or OH if unused. Where a SMILES comes first, the peptide text is derived from it. Side-chain parts run from the residue outwards. [ ]: non-standard residue; d: D form. The star is where a group is joined. αMePhe(2-F) = C[C@](N)(Cc1ccccc1F)C(=O)O; γGlu = O=C(O)[C@H](CCC(=O)[*:2])N[*:1]; C14 diacid = O=C(O)CCCCCCCCCCCCC(=O)*; αMeY = C[C@](N)(Cc1ccc(O)cc1)C(=O)O; αMeL = CC(C)C[C@](C)(N)C(=O)O; Orn = NCCC[C@H](N)C(=O)O; AEEA = NCCOCCOCC(=O)O; Aib = CC(C)(N)C(=O)O

Tests used:
Type in all cases: cell-based
hGCGR = molecular target: T1, hGCGR (Homo sapiens, UniProt P47871); assay: Functional cAMP formation (HTRF) in HEK-293 clonal cells expressing hGCGR, 0.1% bovine casein, without or with 1.0% human serum albumin; details: geometric mean, read-out: hGCGR EC50, nM (SEM, n)
T1 construct: expressed in transfected cells
T1 sequence (P47871 26-477): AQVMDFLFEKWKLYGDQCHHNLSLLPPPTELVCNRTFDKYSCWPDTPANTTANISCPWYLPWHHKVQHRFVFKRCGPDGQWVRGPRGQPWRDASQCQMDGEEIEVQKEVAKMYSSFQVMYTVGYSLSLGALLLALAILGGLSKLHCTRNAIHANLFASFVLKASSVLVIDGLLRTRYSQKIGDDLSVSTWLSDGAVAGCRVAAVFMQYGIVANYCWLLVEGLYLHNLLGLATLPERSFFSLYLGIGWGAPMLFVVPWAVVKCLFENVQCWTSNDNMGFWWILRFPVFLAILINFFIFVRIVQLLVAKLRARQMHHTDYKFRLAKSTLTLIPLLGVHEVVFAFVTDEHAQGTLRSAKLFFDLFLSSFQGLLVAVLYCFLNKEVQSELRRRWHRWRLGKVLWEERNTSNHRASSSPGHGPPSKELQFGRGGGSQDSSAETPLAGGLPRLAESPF
Method in brief: (§1)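 Readings of the HTRF 665/620 nm ratio, which falls as cAMP rises, were converted to nM cAMP using a standard curve after 30 min peptide exposure at 37° C.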

hGLP-1R = hGLP-1R (Homo sapiens, UniProt P43220); assay: Functional cAMP formation (HTRF) in HEK-293 clonal cells expressing hGLP-1R, 0.1% bovine casein, without or with 1.0% human serum albumin; parameters: expressed in transfected cells; details: for EC50: geometric mean, read-out: hGLP-1R EC50, nM (SEM, n); for Emax: read-out: hGLP-1R Emax, % ± SEM
Chain of hGLP-1R (P43220 24-463): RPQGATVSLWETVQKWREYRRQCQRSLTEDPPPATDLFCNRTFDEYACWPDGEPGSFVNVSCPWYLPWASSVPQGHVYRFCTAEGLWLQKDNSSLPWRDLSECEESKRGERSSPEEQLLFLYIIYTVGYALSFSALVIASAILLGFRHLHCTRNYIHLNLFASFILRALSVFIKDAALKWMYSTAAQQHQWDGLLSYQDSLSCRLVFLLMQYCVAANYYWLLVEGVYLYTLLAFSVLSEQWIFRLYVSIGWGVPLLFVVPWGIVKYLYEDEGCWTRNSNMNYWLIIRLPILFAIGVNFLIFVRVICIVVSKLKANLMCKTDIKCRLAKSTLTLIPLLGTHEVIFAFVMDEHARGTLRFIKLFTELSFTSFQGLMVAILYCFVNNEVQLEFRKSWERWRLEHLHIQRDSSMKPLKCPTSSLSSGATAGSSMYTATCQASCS
Method in brief: as §1

hGIPR = molecular target: T2, hGIPR (Homo sapiens, UniProt P48546); assay: Functional cAMP formation (HTRF) in HEK-293 clonal cells expressing hGIPR, 0.1% bovine casein, without or with 1.0% human serum albumin; details: for EC50: geometric mean, read-out: hGIPR EC50, nM (SEM, n); for Emax: read-out: hGIPR Emax, % ± SEM
T2 construct: expressed in transfected cells
T2 sequence (P48546 22-466): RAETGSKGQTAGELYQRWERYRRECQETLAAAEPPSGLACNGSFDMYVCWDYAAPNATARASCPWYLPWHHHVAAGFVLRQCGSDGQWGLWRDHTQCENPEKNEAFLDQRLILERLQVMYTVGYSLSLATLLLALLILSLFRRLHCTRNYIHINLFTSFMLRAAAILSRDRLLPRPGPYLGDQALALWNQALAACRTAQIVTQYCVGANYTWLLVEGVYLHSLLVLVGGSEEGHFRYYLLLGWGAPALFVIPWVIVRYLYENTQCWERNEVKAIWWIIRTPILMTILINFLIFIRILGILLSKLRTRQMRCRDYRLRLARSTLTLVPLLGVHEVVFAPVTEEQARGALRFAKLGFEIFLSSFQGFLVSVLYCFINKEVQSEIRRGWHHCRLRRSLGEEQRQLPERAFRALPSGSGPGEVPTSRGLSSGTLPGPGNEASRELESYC
Method in brief: as §1

[1] = 0.1% bovine casein and 1.0% human serum albumin, 37° C.
[2] = cAMP, incubated at 37° C., 0.1% bovine casein (no human serum albumin)
[3] = HEK293, 0.1% bovine casein and 1.0% human serum albumin, 37° C., percent of maximal response to GIP(1-42)NH2
[4] = HEK293, percent of maximal response to GIP(1-42)NH2, 37° C., 0.1% bovine casein, arithmetic mean
[5] = HEK293, percent of maximal response to GLP-1(7-36)NH2, 37° C., 0.1% bovine casein, arithmetic mean
[6] = HEK293, 0.1% bovine casein and 1.0% human serum albumin, 37° C., percent of maximal response to GLP-1(7-36)NH2

Compound | EC50 (hGCGR; [1]) | EC50 (hGCGR; [2]) | EC50 (hGLP-1R; [2]) | EC50 (hGIPR; [1]) | Emax (hGIPR; [3]) | Emax (hGIPR; [4]) | Emax (hGLP-1R; [5]) | EC50 (hGIPR; [2]) | EC50 (hGLP-1R; [1]) | Emax (hGLP-1R; [6])
CC[C@H](C)[C@H](NC(=O)[C@H](CC(C)C)NC(=O)[C@](C)(Cc1ccc(O)cc1)NC(=O)[C@@H](CCC(=O)O)NC(=O)[C@@H](NC(=O)[C@H](Cc1ccccc1)NC(=O)[C@H](CCC(=O)O)NC(=O)C(C)(C)NC(=O)[C@H](CCC(N)=O)NC(=O)[C@H](C)NC(=O)[C@H](CCCCNC(=O)COCCOCCNC(=O)COCCOCCNC(=O)CC[C@H](NC(=O)CCCCCCCCCCCCC(=O)O)C(=O)O)NC(=O)[C@H](CCCN)NC(=O)[C@H](CC(=O)O)NC(=O)[C@H](CC(C)C)NC(=O)[C@](C)(CC(C)C)NC(=O)[C@@H](NC(=O)[C@H](CO)NC(=O)[C@](C)(Cc1ccccc1F)NC(=O)[C@H](CC(=O)O)NC(=O)[C@H](CO)NC(=O)[C@@H](NC(=O)[C@](C)(Cc1ccccc1F)NC(=O)[C@@H](NC(=O)CNC(=O)[C@H](CCC(=O)O)NC(=O)C(C)(C)NC(=O)[C@@H](N)Cc1ccc(O)cc1)[C@@H](C)O)[C@@H](C)O)[C@@H](C)CC)[C@@H](C)CC)C(=O)N[C@@H](CCC(=O)O)C(=O)NCC(=O)NCC(=O)N[C@@H](CCCCNC(=O)COCCOCCNC(=O)COCCOCCNC(=O)CC[C@H](NC(=O)CCCCCCCCCCCCC(=O)O)C(=O)O)C(=O)N[C@@H](CO)C(=O)N[C@@H](CO)C(=O)NCC(=O)N[C@@H](C)C(=O)N1CCC[C@H]1C(=O)N1CCC[C@H]1C(=O)N1CCC[C@H]1C(=O)N[C@@H](CO)C(N)=O [Example 87] | > 9950 nM | > 9950 nM | 1.34 nM | 4.84 nM | 89.2% | 84.7% |  |  |  | 
CC[C@H](C)[C@H](NC(=O)[C@H](CC(C)C)NC(=O)[C@](C)(Cc1ccc(O)cc1)NC(=O)[C@@H](CCC(=O)O)NC(=O)[C@@H](NC(=O)[C@](C)(Cc1ccccc1F)NC(=O)[C@H](CCC(=O)O)NC(=O)C(C)(C)NC(=O)[C@H](CCC(N)=O)NC(=O)[C@H](C)NC(=O)[C@H](CCCCNC(=O)COCCOCCNC(=O)COCCOCCNC(=O)CC[C@H](NC(=O)CCCCCCCCCCCCC(=O)O)C(=O)O)NC(=O)[C@H](CCCN)NC(=O)[C@H](CC(=O)O)NC(=O)[C@H](CC(C)C)NC(=O)[C@](C)(CC(C)C)NC(=O)[C@@H](NC(=O)[C@H](CO)NC(=O)[C@H](Cc1ccncc1)NC(=O)[C@H](CC(=O)O)NC(=O)[C@H](CO)NC(=O)[C@@H](NC(=O)[C@](C)(Cc1ccccc1F)NC(=O)[C@@H](NC(=O)CNC(=O)[C@H](CCC(=O)O)NC(=O)C(C)(C)NC(=O)[C@@H](N)Cc1ccc(O)cc1)[C@@H](C)O)[C@@H](C)O)[C@@H](C)CC)[C@@H](C)CC)C(=O)N[C@@H](CCC(=O)O)C(=O)NCC(=O)NCC(=O)N[C@@H](CCCCNC(=O)COCCOCCNC(=O)COCCOCCNC(=O)CC[C@H](NC(=O)CCCCCCCCCCCCC(=O)O)C(=O)O)C(=O)N[C@@H](CO)C(=O)N[C@@H](CO)C(=O)NCC(=O)N[C@@H](C)C(=O)N1CCC[C@H]1C(=O)N1CCC[C@H]1C(=O)N1CCC[C@H]1C(=O)N[C@@H](CO)C(N)=O [Example 88] | > 9950 nM | > 9950 nM |  | 0.591 nM | 80.3% | 85.1% | 97.1% |  |  | 
CC[C@H](C)[C@H](NC(=O)[C@H](CC(C)C)NC(=O)[C@](C)(Cc1ccc(O)cc1)NC(=O)[C@@H](CCC(=O)O)NC(=O)[C@@H](NC(=O)[C@H](Cc1ccccc1)NC(=O)[C@H](CCC(=O)O)NC(=O)C(C)(C)NC(=O)[C@H](CCC(N)=O)NC(=O)[C@H](C)NC(=O)[C@H](CCCCNC(=O)COCCOCCNC(=O)COCCOCCNC(=O)CC[C@H](NC(=O)CCCCCCCCCCCCC(=O)O)C(=O)O)NC(=O)[C@H](CCCN)NC(=O)[C@H](CC(=O)O)NC(=O)[C@H](CC(C)C)NC(=O)[C@](C)(CC(C)C)NC(=O)[C@@H](NC(=O)C(C)(C)NC(=O)[C@H](Cc1ccncc1)NC(=O)[C@H](CC(=O)O)NC(=O)[C@H](CO)NC(=O)[C@@H](NC(=O)[C@](C)(Cc1ccccc1F)NC(=O)[C@@H](NC(=O)CNC(=O)[C@H](CCC(=O)O)NC(=O)C(C)(C)NC(=O)[C@@H](N)Cc1ccc(O)cc1)[C@@H](C)O)[C@@H](C)O)[C@@H](C)CC)[C@@H](C)CC)C(=O)N[C@@H](CCC(=O)O)C(=O)NCC(=O)NCC(=O)N[C@@H](CCCCNC(=O)COCCOCCNC(=O)COCCOCCNC(=O)CC[C@H](NC(=O)CCCCCCCCCCCCC(=O)O)C(=O)O)C(=O)N[C@@H](CO)C(=O)N[C@@H](CO)C(=O)NCC(=O)N[C@@H](C)C(=O)N1CCC[C@H]1C(=O)N1CCC[C@H]1C(=O)N1CCC[C@H]1C(=O)N[C@@H](CO)C(N)=O [Example 89] | > 9950 nM | > 9950 nM | 1.03 nM |  | 94.2% | 88.9 ± 3.76% |  | 0.0301 nM |  | 
CC[C@H](C)[C@H](NC(=O)[C@H](CC(C)C)NC(=O)[C@](C)(Cc1ccc(O)cc1)NC(=O)[C@@H](CCC(=O)O)NC(=O)[C@@H](NC(=O)[C@H](Cc1ccccc1)NC(=O)[C@H](CCC(=O)O)NC(=O)C(C)(C)NC(=O)[C@H](CCC(N)=O)NC(=O)[C@H](C)NC(=O)[C@H](CCCCNC(=O)COCCOCCNC(=O)COCCOCCNC(=O)CC[C@H](NC(=O)CCCCCCCCCCCCC(=O)O)C(=O)O)NC(=O)[C@H](CCCN)NC(=O)[C@H](CC(=O)O)NC(=O)[C@H](CC(C)C)NC(=O)[C@](C)(CC(C)C)NC(=O)[C@@H](NC(=O)[C@H](CO)NC(=O)[C@@H](NC(=O)[C@H](CC(=O)O)NC(=O)[C@H](CO)NC(=O)[C@@H](NC(=O)[C@](C)(Cc1ccccc1F)NC(=O)[C@@H](NC(=O)CNC(=O)[C@H](CCC(=O)O)NC(=O)C(C)(C)NC(=O)[C@@H](N)Cc1ccc(O)cc1)[C@@H](C)O)[C@@H](C)O)C(C)C)[C@@H](C)CC)[C@@H](C)CC)C(=O)N[C@@H](CCC(=O)O)C(=O)NCC(=O)NCC(=O)N[C@@H](CCCCNC(=O)COCCOCCNC(=O)COCCOCCNC(=O)CC[C@H](NC(=O)CCCCCCCCCCCCC(=O)O)C(=O)O)C(=O)N[C@@H](CO)C(=O)N[C@@H](CO)C(=O)NCC(=O)N[C@@H](C)C(=O)N1CCC[C@H]1C(=O)N1CCC[C@H]1C(=O)N1CCC[C@H]1C(=O)N[C@@H](CO)C(N)=O [Example 90] (H-Y[Aib]EGT[αMePhe(2-F)]TSDVSI[αMeL]LD[Orn]K([AEEA-AEEA-γGlu-C14 diacid])AQ[Aib]EFI[dE][αMeY]LIEGGK([AEEA-AEEA-γGlu-C14 diacid])SSGAPPPS-NH2) | > 9950 nM | > 9950 nM | 0.221 nM |  |  | 93 ± 3.31% | 96.2 ± 1.5% |  | 23.4 nM | 96.6%
CC[C@H](C)[C@H](NC(=O)[C@H](CC(C)C)NC(=O)[C@](C)(Cc1ccc(O)cc1)NC(=O)[C@@H](CCC(=O)O)NC(=O)[C@@H](NC(=O)[C@](C)(Cc1ccccc1)NC(=O)[C@H](CCC(=O)O)NC(=O)C(C)(C)NC(=O)[C@H](CCC(N)=O)NC(=O)[C@H](C)NC(=O)[C@H](CCCCNC(=O)COCCOCCNC(=O)COCCOCCNC(=O)CC[C@H](NC(=O)CCCCCCCCCCCCC(=O)O)C(=O)O)NC(=O)[C@H](CCCN)NC(=O)[C@H](CC(=O)O)NC(=O)[C@H](CC(C)C)NC(=O)[C@](C)(CC(C)C)NC(=O)[C@@H](NC(=O)C(C)(C)NC(=O)[C@@H](NC(=O)[C@H](CC(=O)O)NC(=O)[C@H](CO)NC(=O)[C@@H](NC(=O)[C@](C)(Cc1ccccc1F)NC(=O)[C@@H](NC(=O)CNC(=O)[C@H](CCC(=O)O)NC(=O)C(C)(C)NC(=O)[C@@H](N)Cc1ccc(O)cc1)[C@@H](C)O)[C@@H](C)O)C(C)C)[C@@H](C)CC)[C@@H](C)CC)C(=O)N[C@@H](CCC(=O)O)C(=O)NCC(=O)NCC(=O)N[C@@H](CCCCNC(=O)COCCOCCNC(=O)COCCOCCNC(=O)CC[C@H](NC(=O)CCCCCCCCCCCCC(=O)O)C(=O)O)C(=O)N[C@@H](CO)C(=O)N[C@@H](CO)C(=O)NCC(=O)N[C@@H](C)C(=O)N1CCC[C@H]1C(=O)N1CCC[C@H]1C(=O)N1CCC[C@H]1C(=O)N[C@@H](CO)C(N)=O [Example 93] | > 9950 nM | > 9950 nM |  |  | 92% | 99.4 ± 6.93% |  |  |  | 90.2%
